Data from PMC12693182, “Synthesis and QSAR Studies of Claramine Derivatives, a New Class of Broad-Spectrum Antimicrobial Agents” (Molecules, 2025).
In brackets after ≈: the same amount, converted by molar mass. Where two headings read alike, the source gives them in different places.

Assays:
[1] = test system: S. aureus 340; test: MIC, broth microdilution; type: cell-based, Staphylococcus aureus; settings: for MIC: Staphylococcus aureus, 340, 24 h
Method: (§1) Antimicrobial activity of the compounds was studied by determination of minimal inhibitory concentrations (MIC) according to the NCCLS guidelines M7-A2 using the microbroth dilution methods. The bacteria strains were grown on trypticase soy agar (Becton Dickinson) at 37 °C for 24 h. Inocula were prepared in TCE (tryptone 0.1%, […], wt/vol) by ajusting the turbidity at 623 nm to obtain 1–3 10^5 CFU/mL.
(§2) Antimicrobial activities of the compounds were determined by using a broth microdilution method performed in sterile 96-well microplates. All compounds were solubilized in water at a concentration of 10 mM and were transferred to each microplate well in order to obtain a two-fold serial dilution in 100 µL of broth and 100 µL of inoculum containing 2–6 10^5 CFU of each bacterium were added to each well. Some wells were reserved for positive controls and inoculum viability.

[2] = test system: S. aureus ATCC 25923; test: MIC, broth microdilution; type: cell-based, Staphylococcus aureus; settings: Staphylococcus aureus, ATCC25923, 24 h, ATCC strain
Method: as §1, §2

[3] = test system: S. intermedius 1051997; test: MIC, broth microdilution; type: cell-based, Staphylococcus intermedius; settings: for MIC: Staphylococcus intermedius, 1051997, 24 h, 24 h
Method: as §1, §2

[4] = test system: E. faecalis ATCC29212; test: MIC, broth microdilution; type: cell-based, Enterococccus faecalis; settings: Enterococcus faecalis, ATCC29212, 24 h, ATCC strain, read-out: MIC E. faecalis 29212
Method: as §1, §2

[5] = test system: E. coli 1956; test: MIC, broth microdilution; type: cell-based, Escherichia coli; settings: Escherichia coli, 1956, 24 h
Method: as §1, §2

[6] = test system: E. coli ATCC 25922; test: MIC, broth microdilution; type: cell-based, Escherichia coli; settings: Escherichia coli, ATCC25922, 24 h, ATCC strain
Method: as §1, §2

[7] = test system: P. aeruginosa 1051575; test: MIC, broth microdilution; type: cell-based, Pseudomonas aeruginosa; settings: for MIC: Pseudomonas aeruginosa, 1051575, 24 h, 24 h
Method: as §1, §2

[8] = test system: P. aeruginosa ATCC 27853; test: MIC, broth microdilution; type: cell-based, Pseudomonas aeruginosa; settings: Pseudomonas aeruginosa, ATCC27853, 24 h, ATCC strain
Method: as §1, §2

[9] = test system: Chinese hamster Ovary cells (CHO-K1); test: Cytotoxicity assay (WST-1 / Neutral Red); type: cell-based; settings: 24-h incubation; for IC50: Cricetulus griseus, 24 h
Method: The cytotoxic activities of compounds were assessed on Chinese hamster Ovary cells (CHO-K1) provided from ATCC-LGC Standards Sarl (Molsheim, France). Cells were maintained in Mc Coy’s 5A (CHO) medium supplemented with 10% bovine calf serum, 2 mM glutamine, and 100 U mL^−1/10 µg mL^−1 penicillin/streptomycin mixtures. For the cytotoxicity experiments, they were seeded in 96-well plates and incubated at 37 °C in humidified atmosphere containing 5% CO2 overnight, then concentrations of compounds were incorporated in triplicate cultures. After a 24-h incubation period at 37 °C, cells were submitted to three successive washes in phosphate buffer saline (PBS) and cell viability was evaluated by two different vital dyes: • i. A first set of cell cultures was incubated in PBS containing 10% WST-1 for 30 min at 37 °C, 5% CO2. Cell viability was evaluated by the assessment of WST-1 absorbance at 450 nm in a microplate spectrophotometer. • ii. A second set of cell cultures was placed into Neutral Red medium (50 μg mL^−1 Neutral Red in complete medium) and incubated for 3 h at 37 °C, 5% CO2. Then the Neutral Red medium was removed and the distaining solution (50% ethanol, 1% acetic acid, 49% distilled water; 50 µL per well) was added into the wells. The plates were shaken for 15–20 min at room temperature in the dark. Cell viability was evaluated by the assessment of absorbance at 540 nm in a microplate spectrophotometer.
Results were expressed as percentages of cell viability about the control (culture medium-only), which corresponded to 100% cell viability. Dose-response curves were calculated by non-linear regression analysis with TableCurve 2D software (V 5.0.1) (Systat Software Inc., San Jose, CA, USA). The Inhibitory Concentration 50% (IC50) was defined as the concentration of compounds that induced a 50% decrease of viable cells.

[10] = test system: Gram-positive and Gram-negative human and veterinary reference strains; test: MIC against the panel of Gram-positive and Gram-negative reference strains; type: cell-based; settings: for MIC: Homo sapiens, 24 h, over several or all of the tested pathogens; for Therapeutic Ratio (TR): IC50 (CHO)/MIC, over several of the tested pathogens
Source text: Typically, cytotoxicity was expressed as the half maximal inhibitory concentration (IC50), defined as the concentration of a compound that decreases cell viability by 50% relative to untreated cells. This parameter provides a quantitative measure of a compound’s toxic potential toward mammalian cells. To facilitate data interpretation, we defined the Therapeutic Ratio (TR) as the ratio of IC50 (µg/mL) to MIC (µg/mL). This dimensionless parameter provides a straightforward measure of antibacterial selectivity, allowing direct comparison of cytotoxicity and antibacterial potency. A high TR value indicates compounds with strong antibacterial activity at concentrations far below their cytotoxic threshold, whereas a TR close to unity reflects poor selectivity and limited therapeutic potential. […] Within the Claramine A series, variations in IC50 strongly impacted TR values (Figure 5).
as §1, §2

[11] = test system: S. aureus 340 and P. aeruginosa 1051575; test: MIC against S. aureus and P. aeruginosa strains (Figure 6); type: cell-based; settings: range over both strains, C-24 methyl ester series
Method: as §1, §2

Compound | MIC [1] [µg/mL] | MIC [2] [µg/mL] | MIC [3] [µg/mL] | MIC [4] [µg/mL] | MIC [5] [µg/mL] | MIC [6] [µg/mL] | MIC [7] [µg/mL] | MIC [8] [µg/mL] | IC50 [9] [µg/mL] | MIC ([10]; read-out: MIC) [µg/mL] | Therapeutic Ratio (TR) [10] | MIC [11] [µg/mL] | MIC S. aureus 340 ([1]; 24 h) [µg/mL] | Therapeutic Ratio (TR) ([3]; IC50 (CHO)/MIC, S. intermedius) | Therapeutic Ratio (TR) ([7]; IC50 (CHO)/MIC, P. aeruginosa) | IC50 CHO [9] [µg/mL] | MIC [10] [µg/mL]
COC(=O)CCC(C)C1CCC2C3CCC4CC(NCCCNCCCN)CCC4(C)C3CC(O)C12C (centres unmarked) [Claramine A08] | 3 (≈ 5.77 µM) | 2 (≈ 3.85 µM) | 0.4 (≈ 0.77 µM) | 3 (≈ 5.77 µM) | 13 (≈ 25 µM) | 3 (≈ 5.77 µM) | 3 (≈ 5.77 µM) | 3 (≈ 5.77 µM) | 21 (≈ 40.4 µM) | < 15 | > 5 | – | – | – | – | – | –
COC(=O)CCC(C)C1CCC2C3CCC4CC(NCCCN(C)CCCN)CCC4(C)C3CC(O)C12C (centres unmarked) [Claramine A16] | – | – | – | – | – | – | – | – | – | – | – | 7 to 14 (≈ 13.1 to 26.2 µM) | – | – | – | – | –
COC(=O)CCC(C)C1CCC2C3CCC4CC(NCCCN5CCN(CCCN)CC5)CCC4(C)C3CC(O)C12C (centres unmarked) [Claramine A18] | 7 (≈ 11.9 µM) | 15 (≈ 25.5 µM) | 4 (≈ 6.79 µM) | 30 (≈ 50.9 µM) | – | 7 (≈ 11.9 µM) | 15 (≈ 25.5 µM) | 15 (≈ 25.5 µM) | 135 (≈ 229 µM) | < 15 | > 5 | – | – | – | – | – | –
COC(=O)CCC(C)C1CCC2C3CCC4CC(NCCCNCCCN)CCC4(C)C3CCC12C (centres unmarked) [Claramine E09] | 1 (≈ 1.98 µM) | 16 (≈ 31.8 µM) | 0.7 (≈ 1.39 µM) | 32 (≈ 63.5 µM) | 3 (≈ 5.95 µM) | 32 (≈ 63.5 µM) | – | 32 (≈ 63.5 µM) | > 60 | – | – | – | 0.7 (≈ 1.39 µM) | 65–114 | > 10 | 80 (≈ 159 µM) | 0.7 to 30 (≈ 1.39 to 59.5 µM)
COC(=O)CCC(C)C1CCC2C3C(O)CC4CC(NCCCN5CCN(CCCN)CC5)CCC4(C)C3CC(O)C12C (centres unmarked) [Claramine B07] | 8 (≈ 13.2 µM) | 4 (≈ 6.61 µM) | 4 (≈ 6.61 µM) | 8 (≈ 13.2 µM) | – | 15 (≈ 24.8 µM) | 15 (≈ 24.8 µM) | 30 (≈ 49.6 µM) | > 60 | – | – | – | – | – | – | 80 (≈ 132 µM) | 0.7 to 30 (≈ 1.16 to 49.6 µM)
CC(C)OC(=O)CCC(C)C1CCC2C3CCC4CC(NCCCNCCCCN)CCC4(C)C3CC(O)C12C (centres unmarked) [Claramine A03] | 2 (≈ 3.56 µM) | 7 (≈ 12.5 µM) | 4 (≈ 7.12 µM) | 14 (≈ 24.9 µM) | 14 (≈ 24.9 µM) | 14 (≈ 24.9 µM) | 14 (≈ 24.9 µM) | 14 (≈ 24.9 µM) | 73 (≈ 130 µM) | < 15 | > 5 | – | – | – | – | – | –
COC(=O)CCC(C)C1CCC2C3CCC4CC(NCCCNCCCNCCCN)CCC4(C)C3CC(O)C12C (centres unmarked) [Claramine A06] | – | – | – | – | – | – | – | – | – | – | – | 2 to 4 (≈ 3.47 to 6.93 µM) | – | – | – | – | –
COC(=O)CCC(C)C1CCC2C3CCC4CC(NCCNCCNCCNCCNCN)CCC4(C)C3CC(O)C12C (centres unmarked) [Claramine A15] | 6 (≈ 9.89 µM) | 4 (≈ 6.59 µM) | 1 (≈ 1.65 µM) | 16 (≈ 26.4 µM) | 14 (≈ 23.1 µM) | 8 (≈ 13.2 µM) | 8 (≈ 13.2 µM) | 8 (≈ 13.2 µM) | 93 (≈ 153 µM) | < 15 | > 5 | – | – | – | – | – | –
CC(C)OC(=O)CCC(C)C1CCC2C3C(O)CC4CC(NCCCNCCCCN)CCC4(C)C3CC(O)C12C (centres unmarked) [Claramine B14] | 14 (≈ 24.2 µM) | 7 (≈ 12.1 µM) | 4 (≈ 6.92 µM) | 30 (≈ 51.9 µM) | 30 (≈ 51.9 µM) | 4 (≈ 6.92 µM) | 7 (≈ 12.1 µM) | 15 (≈ 26 µM) | 67 (≈ 116 µM) | – | – | – | – | – | – | – | –
